The source of these data is ChEMBL document CHEMBL1212798, “High concentration of raltegravir in semen of HIV-infected men: results from a substudy of the EASIER-ANRS 138 trial” (2010).

What all share (assay type): functional
The test system of assay [1] is Human immunodeficiency virus 1. In words: Antiviral activity against HIV1.
Assay [2] deals with Human immunodeficiency virus 1. Nature of the assay: Antiviral activity against HIV1-infected in human assessed as decrease in plasma viral RNA level measured after 9 hrs post dose.
Assay [3] has as its system Human immunodeficiency virus 1. In words: Antiviral activity against HIV1-infected in human assessed as decrease in semen viral RNA level measured after 5 hrs post dose.

Take `Cc1nnc(C(=O)NC(C)(C)c2nc(C(=O)NCc3ccc(F)cc3)c(O)c(=O)n2C)o1` [RALTEGRAVIR]: the Virucidal in assay [1] was 14.6 ng/mL. Further, the Activity in assay [2] came to 50 mL⁻¹; in assay [3], 100 mL⁻¹.
